From PubChem BioAssay (NCI)
≈ marks a conversion by molar mass, not a printed value.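 Cells were grown in 96-well plates and exposed to each compound for 48 hours at five concentrations; endpoints were interpolated linearly between bracketing concentrations, or set to the highest concentration if not reached. The concentration for 50% growth inhibition is given as GI50. Definition used: TGI = concentration required for complete inhibition of growth.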 Calls of active or inactive are those of the source. Cut-off read from the data, not from the text of the source: active = GI50 below about 0.43 µM; inactive = the rest.

Key:
Test in all cases: NCI tumour cell line growth inhibition, 48 h
XF 498 CNS = test system: XF 498 CNS
P388/ADR leukemia = test system: P388/ADR leukemia
KM20L2 colon = test system: KM20L2 colon
SN12K1 renal = test system: SN12K1 renal
P388 leukemia = test system: P388 leukemia
SNB-78 CNS = test system: SNB-78 CNS
DLD-1 colon = test system: DLD-1 colon
RXF-631 renal = test system: RXF-631 renal
DMS 114 small cell lung = test system: DMS 114 small cell lung
LXFL 529 NSCLC = test system: LXFL 529 NSCLC

Row | Compound | TGI (XF 498 CNS) [µM] | TGI (P388/ADR leukemia) | TGI (KM20L2 colon) [µM] | TGI (SN12K1 renal) | TGI (P388 leukemia) | TGI (SNB-78 CNS) [µM] | TGI (DLD-1 colon) | TGI (RXF-631 renal) [µM] | TGI (DMS 114 small cell lung) | TGI (LXFL 529 NSCLC) [µM] | GI50 (P388/ADR leukemia) [µg/mL] | outcome (KM20L2 colon) | GI50 (SN12K1 renal) [µg/mL] | GI50 (DMS 114 small cell lung) [µg/mL] | GI50 (DLD-1 colon) [µg/mL]
1 | CC(=O)OC1CCC2(C)C(CCC3C2CCC2(C)C(c4ccc(=O)oc4)C(OC(C)=O)CC32O)C1 (stereo not given) | 0.0771 | 125 µM | 0.092 | 0.0296 µM | 125 µM | 0.112 | 0.0293 µM |  |  |  |  |  |  |  | 
2 | CC/C(CC(=O)CCC(=O)Nc1ccc(C)c(C)c1)=N\NC(=O)c1cc2ccccc2cc1O |  |  |  |  |  | > 100 | > 100 µM | > 100 | > 100 µM | > 100 |  |  |  |  | 
3 | Cc1c2ccncc2c(C)c2c1[nH]c1ccc(O)cc12 |  | 1.75 µg/mL |  | 0.182 µg/mL | 0.232 µg/mL |  | 0.883 µg/mL |  | 0.227 µg/mL |  | 0.014 (≈ 0.0532 µM) | inactive | 0.0168 (≈ 0.0639 µM) | 0.0226 (≈ 0.0863 µM) | 0.023 (≈ 0.0875 µM)
4 | CCCOC(=O)CCC(NC(=O)c1ccc(Nc2nc3ccccc3nc2-c2cccs2)cc1)C(=O)OCCC (stereo not given) | > 100 |  | > 100 |  |  | > 100 |  | > 100 |  | > 100 |  |  |  |  | 
5 | CCOC(=O)CN(CC)C(=O)NC12CC3CC(CC(C3)C1)C2 | 293 | 640 µM | 471 | 569 µM | 508 µM | 709 | > 119 µM |  | 363 µM |  |  |  |  |  | 
6 | Cc1c(CCCl)c(Cl)n2c(nc3ccccc32)c1C#N |  |  | 2.11 |  |  | > 100 | 2.44 µM | 2.18 | 2.84 µM | 1.63 |  |  |  |  | 
7 | O=C1C=C2SC3C[C@@]24CC1(O)[N+]1=c2c4c(c(O)c4c2=C(C=N4)CC1)N3 | 3.28 |  | 1.08 | 2.73 µM | 4.78 µM | 4.21 | 2.65 µM |  | 0.504 µM |  |  |  |  |  | 
8 | O=S(c1ccc(O)cc1)c1ccc(O)cc1 | > 100 |  | > 100 |  |  |  | > 100 µM | > 100 | > 100 µM |  |  |  |  |  | 
9 | CNC(=O)OC1/C(C)=C\C(C)C(O)C(OC)CC(C)CC2=C(OC)C(=O)C=C(C2=O)N(C)C(=O)/C(C)=C/C=C\C1OC (stereo not given) | 10 |  | 15.5 |  |  | 30.3 | 16.4 µM | 41.2 | 12.6 µM | 19.6 |  |  |  |  | 
